According to ChEMBL document CHEMBL1147478, “Phosphonate inhibitors of antigen 85C, a crucial enzyme involved in the biosynthesis of the Mycobacterium tuberculosis cell wall” (Bioorg Med Chem Lett, 2004):

Target: Diacylglycerol acyltransferase/mycolyltransferase Ag85C (Mycobacterium tuberculosis, UniProt P9WQN9)
Test: In vitro concentration required to inhibit antigen 85C mycolyltransferase activity in Mycobacterium tuberculosis

Sequence of Diacylglycerol acyltransferase/mycolyltransferase Ag85C (P9WQN9 whole entry): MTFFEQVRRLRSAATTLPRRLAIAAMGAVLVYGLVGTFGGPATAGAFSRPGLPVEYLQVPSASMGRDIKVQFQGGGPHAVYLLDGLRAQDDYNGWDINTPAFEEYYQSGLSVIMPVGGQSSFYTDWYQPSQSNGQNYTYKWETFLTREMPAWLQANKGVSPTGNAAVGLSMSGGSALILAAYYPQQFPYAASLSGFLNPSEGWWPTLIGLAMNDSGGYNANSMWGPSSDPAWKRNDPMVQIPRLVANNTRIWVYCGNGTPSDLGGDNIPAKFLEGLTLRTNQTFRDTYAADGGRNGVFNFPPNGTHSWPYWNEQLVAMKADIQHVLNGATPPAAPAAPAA

Row | Compound | IC50 [µM]
1 | CCCCCCP(=O)(O)OCC [ETHYL HYDROGEN HEXYLPHOSPHONATE] | 3.56
2 | CCCCCCP(=O)(O)OCCN1C(=O)c2ccccc2C1=O | 4.39
3 | CCCCCCCCCP(=O)(O)OCC [ETHYL HYDROGEN NONYLPHOSPHONATE] | 471
4 | CCCCP(=O)(OCC)OCN1C(=O)c2ccccc2C1=O (configuration not stated) | 10
5 | CCCCCCP(=O)(OCC)OCc1cccc(Oc2ccccc2)c1 (configuration not stated) | 42.6
6 | CCCCCCCP(=O)(OCC)OCc1cccc(Oc2ccccc2)c1 (configuration not stated) | 21
7 | CCCCCCCP(=O)(O)OCC [ETHYL HYDROGEN HEPTYLPHOSPHONATE] | 1.06
8 | CCCCP(=O)(O)OCC [ETHYL HYDROGEN BUTYLPHOSPHONATE] | 431
9 | CCCCP(=O)(OCC)OCCN1C(=O)c2ccccc2C1=O (configuration not stated) | 50.7
10 | CCCCP(=O)(OCC)OCc1cccc(Oc2ccccc2)c1 (configuration not stated) | 2.01
11 | CCCCCCCP(=O)(O)OCCN1C(=O)c2ccccc2C1=O | 1.47
12 | CCCCCCCCCP(=O)(OCC)OCN1C(=O)c2ccccc2C1=O (configuration not stated) | 87.1
13 | CCCCCCCCCP(=O)(OCC)OCc1cccc(Oc2ccccc2)c1 (configuration not stated) | 14.8
14 | CCCCCCCP(=O)(OCC)OCN1C(=O)c2ccccc2C1=O (configuration not stated) | 1.31
15 | CCCCCCCCCP(=O)(OCC)OCCN1C(=O)c2ccccc2C1=O (configuration not stated) | 25.7
16 | CCCCCCCCCCCCCCP(=O)(OCC)OCc1cccc(Oc2ccccc2)c1 (configuration not stated) | 862
17 | CCCCCCCCCCCCCCP(=O)(OCC)OCN1C(=O)c2ccccc2C1=O (configuration not stated) | 41
